{
  "source": "paper PMC8536575",
  "about": "“Acute effects of the imidacloprid metabolite desnitro-imidacloprid on human nACh receptors relevant for neuronal signaling” (Archives of Toxicology, 2021)",
  "key": {"[1]": {"tested_on": "Xenopus laevis oocytes without additional receptor expression", "experiment": "Control recordings in oocytes without additional receptor expression", "type": "cell-based", "settings": "DN-IMI 30 µM, injection of water without mRNA, n = 5", "experimental": "First, we focused our experiments on the α4β2 receptor, which can assemble in two different stoichiometries. […] For control purposes, we applied DN-IMI (30 µM) to Xenopus laevis oocytes without additional receptor expression (injection of water without mRNA)."}, "nAChRs on LUHMES neurons": {"tested_on": "nAChRs on LUHMES neurons", "experiment": "High-throughput Ca2+-imaging of LUHMES neurons (agonist effect)", "type": "cell-based, human", "experimental": "For Ca^2+-imaging, the cells were pre-differentiated for 48 h in cell culture flasks, detached and plated at a density of 20,000 cells and 30,000 cells per well on 0.1% PEI-coated 384-well and 96-well plates (Greiner Bio-One), respectively, for the Ca^2+-imaging. The cells were further differentiated for another 7 days. 50% of the medium was exchanged every 2–3 days.\nCa^2+-imaging was performed using HT Functional Drug Screening System FDSS/µCELL (Hamamatsu Photonics) at nominal 37 °C. The FDSS/µCell system enables the indirect recording of changes of [Ca^2+]i via a Ca^2+-sensitive fluorescent dye. The fluorescence signal of a complete 384-well plate is acquired at once with a high-speed and high-sensitivity digital ImagEM X2 EM-CCD camera (Electron Multiplying Charge-Coupled Device, Hamamatsu Photonics), but with limited spatial resolution. Therefore, the software only determines the mean fluorescence signal of each well rather than of individual cells. For compound application, the integrated dispenser head with 384 pipette tips was used, which can add the test compound to all wells simultaneously. Cells were preincubated with Cal-520 AM (AAT Bioquest) at a concentration of 1 µM for 1 h at 37 °C. For recording, the medium was exchanged by a buffer solution containing [mM]: 135 NaCl, 5 KCl, 0.2 MgCl2, 2.5 CaCl2, 10 HEPES, and 10 D-glucose, pH 7.4. Test compound application was executed after obtaining a 1.5 min baseline recording. Where applicable, a second application was executed 4.5 min after the first application. The total recording never exceeded 8 min.\nFor the high-throughput Ca^2+-imaging data obtained in LUHMES cells, an offset correction using the FDSS software (version 3.2) was performed. Afterward, the data were exported and further analyzed with scripts written in R (version 3.6.3) (R Core Team [2020]). The concentration–response curves were fitted using a log-logistic model described by Ritz et al. ([2015]), utilizing the R package drc with its function drm() and LL2.2() with the following equation: f(x) = d/[1 + exp(b(log(x) − ẽ))] (Ritz et al. [2015]). The logarithm of the half-maximal effective concentration (logEC50) between 0 and the upper limit (d), which was set to 1, is represented by ẽ, x denotes the concentration, and b stands for the slope parameter (Ritz et al. [2015]). In cases with normalizations to responses induced by other compounds, the function LL2.3() was used with a variable upper limit (d; Ritz et al. [2015]). The same equation was used to determine the half-maximal inhibitory concentration (logIC50). Then the logEC50 and logIC50 values were converted into the pIC50 and pEC50 values, which are the negative logarithms to base 10."}, "human α4β4 nAChR": {"target": "T1, human α4β4 nAChR (Homo sapiens, UniProt P30926+P43681)", "T1 construct": "expressed in transfected cells; host or cells: Xenopus laevis oocytes, mRNA injection, 3.33 ng α4 and 3.33 ng β4", "T1 sequence (P43681 27-627)": "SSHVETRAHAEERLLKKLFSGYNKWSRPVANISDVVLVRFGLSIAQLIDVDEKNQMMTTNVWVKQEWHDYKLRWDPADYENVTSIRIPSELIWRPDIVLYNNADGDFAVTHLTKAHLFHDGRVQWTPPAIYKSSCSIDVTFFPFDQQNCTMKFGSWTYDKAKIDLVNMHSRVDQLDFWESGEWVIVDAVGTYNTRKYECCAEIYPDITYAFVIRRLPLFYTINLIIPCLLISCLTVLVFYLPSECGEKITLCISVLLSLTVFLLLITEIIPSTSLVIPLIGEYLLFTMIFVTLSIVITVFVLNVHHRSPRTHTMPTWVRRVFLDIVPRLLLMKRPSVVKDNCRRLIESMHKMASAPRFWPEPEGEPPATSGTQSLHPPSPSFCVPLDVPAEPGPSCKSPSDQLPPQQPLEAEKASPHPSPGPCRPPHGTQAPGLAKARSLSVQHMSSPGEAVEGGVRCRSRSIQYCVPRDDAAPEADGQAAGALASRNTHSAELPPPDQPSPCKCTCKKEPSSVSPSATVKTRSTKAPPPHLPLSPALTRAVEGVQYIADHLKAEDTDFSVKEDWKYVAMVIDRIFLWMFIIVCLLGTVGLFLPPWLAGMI", "T1 sequence (P30926 22-498)": "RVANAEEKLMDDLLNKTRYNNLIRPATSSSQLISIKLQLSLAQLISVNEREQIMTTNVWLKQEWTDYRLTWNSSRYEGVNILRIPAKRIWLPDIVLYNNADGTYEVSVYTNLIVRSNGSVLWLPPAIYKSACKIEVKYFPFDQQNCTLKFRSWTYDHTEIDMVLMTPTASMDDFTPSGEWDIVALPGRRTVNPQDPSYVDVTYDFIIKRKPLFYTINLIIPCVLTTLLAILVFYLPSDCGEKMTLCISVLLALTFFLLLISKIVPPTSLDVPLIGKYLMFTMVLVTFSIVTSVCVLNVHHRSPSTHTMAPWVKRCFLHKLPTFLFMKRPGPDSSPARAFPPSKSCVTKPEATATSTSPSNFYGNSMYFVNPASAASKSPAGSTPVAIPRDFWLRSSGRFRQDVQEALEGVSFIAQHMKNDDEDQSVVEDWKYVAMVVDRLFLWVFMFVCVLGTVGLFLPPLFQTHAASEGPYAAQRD", "experiment": "Two-electrode voltage-clamp recordings, Xenopus laevis oocytes expressing human α4β4 nAChR", "type": "cell-based", "from_the_text": "The human α7 nAChR subunit was cloned in the pCDNA3.1 vector.\nFor the generation of the mRNA for injection, the plasmid DNAs of α3, α4, β2, and β4 were linearized with the NotI restriction endonuclease (New England Biolabs) and the plasmid DNA of α7 was linearized with the XbaI restriction endonuclease (New England Biolabs). The mRNAs of α3, α4, β2, and β4 were generated by in vitro transcription using the mMESSAGE mMACHINE SP6 Transcription Kit (Invitrogen). For the generation of α7 mRNA, the mMESSAGE mMACHINE T7 Transcription Kit (Invitrogen) was used. For the separation of the DNA and mRNA, a phenol–chloroform extraction (Chomczynski and Sacchi [2006]) was performed. The mRNA was then obtained by ethanol precipitation from the aqueous phase; for quantification, the BioPhotometer (Eppendorf) was used.\nThe recordings of human α7, α3β4, α4β2, and α4β4 nAChRs expressed in Xenopus laevis oocytes (EcoCyte Bioscience) were performed in two-electrode voltage-clamp mode using the Roboocyte2 system and the corresponding software (version 1.4.1; Multi Channel Systems MCS). Prior to the recordings, the oocytes were maintained at 19 °C in modified Barth’s solution containing [mM]: 88 NaCl, 1 KCl, 0.33 Ca(NO3)2, 0.82 MgSO4, 2.4 NaHCO3, 0.41 CaCl2, 5 Tris, 100 U/ml penicillin, 100 µg/ml streptomycin, pH 7.4.\nTo express human α7 nAChR, we injected 50 nl of mRNA solution (30 ng mRNA) per oocyte, using the Roboinject and the corresponding software (version 1.2.1; Multi Channel Systems MCS). […]\nThe baseline correction of voltage-clamp oocyte recordings was performed with the Roboocyte2 + software (version 1.4.3; Multi Channel Systems MCS, Germany). The maximal current influx and further analysis were executed in scripts written in R. In the antagonist experiments with oocytes, the maximal inward current was determined for the last response of each period (control, three antagonist concentrations, and washout)."}},
  "data": [
    {"smiles": "NC1=NCCN1Cc1ccc(Cl)nc1", "note": "[DN-IMI, desnitro-imidacloprid]", "values": [
      {"measurement": "current responses in oocytes without receptor expression", "setting": "[1]", "value": "did not detect any current responses"},
      {"measurement": "pEC50 of [Ca2+]i response (peak amplitude)", "setting": "nAChRs on LUHMES neurons; LUHMES neurons, absence of PNU, normalized to the maximal response stimulated by DN-IMI, tested ≤ 100 µM", "value": 6.6},
      {"measurement": "increase of the maximal amplitude by PNU", "setting": "nAChRs on LUHMES neurons; PNU-120596 10 µM", "value": "around 40%"},
      {"measurement": "upper asymptote, % of the maximal response", "setting": "nAChRs on LUHMES neurons; absence of PNU", "value": 53, "unit": "%"},
      {"measurement": "relative half maximum (turning point)", "setting": "nAChRs on LUHMES neurons; absence of PNU, normalized to maximal response to DN-IMI in presence of PNU", "value": "6.8 ± 0.04 -log(M)"},
      {"measurement": "concentrations triggering [Ca2+]i responses", "setting": "nAChRs on LUHMES neurons; human neurons", "value": "≥ 100", "unit": "nM"},
      {"measurement": "BMC for 20% response", "setting": "nAChRs on LUHMES neurons; in different systems ([Ca2+]i signaling and single nAChR data)", "value": "100 to 300", "unit": "nM"},
      {"measurement": "relative half maximum (turning point)", "setting": "nAChRs on LUHMES neurons; presence of PNU (10 µM)", "value": "6.5 ± 0.03 -log(M)"},
      {"measurement": "upper asymptote, % of the maximal response", "setting": "nAChRs on LUHMES neurons; presence of PNU (10 µM)", "value": 93, "unit": "%"},
      {"measurement": "estimated maximum", "setting": "human α4β4 nAChR; normalized to nicotine (100 µM)", "value": "~ 0.97"},
      {"measurement": "EC50", "setting": "human α4β4 nAChR; read-out: relative pEC50 (inward current amplitude) (converted)", "value": 3.16, "unit": "µM"}
    ]}
  ]
}
